# According to US20120077836A1, “METHODS OF ADMINISTERING (4AR,10AR)-1-N-PROPYL-1,2,3,4,4A,5,10,10A-OCTAHYDROBENZO [G] QUINOLINE-6,7-DIOL AND RELATED COMPOUNDS ACROSS THE ORAL MUCOSA, THE NASAL MUCOSA OR THE SKIN AND PHARMACEUTICAL COMPOSITIONS THEREOF” (priority 2009, published 2012):
# How the values were obtained:
# [1] = tested on: rats with unilateral 6-OHDA lesions; experiment: D1/D2 dissection, rotation response in rats with unilateral 6-OHDA lesions; type: in vivo, rat; settings: 6-OHDA rats; for MED (minimum effective dose to induce rotation) / MEDNemonapride (MED to overcome Nemonapride block): dosed SC; for MEDNemonapride (MED to overcome Nemonapride block): * = rotations could not be blocked by SCH23390
# Text: Rats weighing 200-250 g were subjected to unilateral 6-OHDA lesions. […] Nemonapride is a D2 antagonist that blocks the D2 receptors, therefore any observed rotations would be dependent upon activity at the D1 receptors.
# 6-OHDA rats = experiment: Reversal of L-DOPA-induced dyskinesias in 6-OHDA rats (AIMS); type: in vivo, rat; settings: after 7 days L-DOPA/Benserazide priming; once daily days 1-10: L-DOPA/Benserazide 6/15 mg/kg SC; compound 10 0.0013 mg/kg SC; pramipexole […] SC
# Text: Animals were observed on Days 1, 3 and 5 and AIMS were scored. The day 5 scores were then used to separate the animals into three groups of 6 animals each. Group 1 continued with daily L-DOPA treatment. […] Treatment continued daily for 10 days and the amount of dyskinesia was scored on days 1, 5, 9 and 10.
# MPTP/AMPT mouse model = experiment: Superiority model, hypomotility in the MPTP/AMPT mouse model; type: in vivo
# Procedure: MPTP (1-methyl-4-phenyl-1,2,3,6-tetrahydropyridine) is a neurotoxin that causes permanent symptoms of Parkinson's disease by killing certain neurons in the substantia nigra of the brain. It is used to study the disease in monkeys and mice. […] Various compounds (all dosed subcutaneously) were tested for their ability to reverse the motility deficits produced in this model.
# [2] = target: T1, human recombinant D1 receptor (Homo sapiens, UniProt P21728); experiment: D1 cAMP assay; type: cell-based; settings: read-out: intrinsic activity (efficacy)
# T1 construct: expressed in transfected cells
# T1 sequence (P21728 whole entry): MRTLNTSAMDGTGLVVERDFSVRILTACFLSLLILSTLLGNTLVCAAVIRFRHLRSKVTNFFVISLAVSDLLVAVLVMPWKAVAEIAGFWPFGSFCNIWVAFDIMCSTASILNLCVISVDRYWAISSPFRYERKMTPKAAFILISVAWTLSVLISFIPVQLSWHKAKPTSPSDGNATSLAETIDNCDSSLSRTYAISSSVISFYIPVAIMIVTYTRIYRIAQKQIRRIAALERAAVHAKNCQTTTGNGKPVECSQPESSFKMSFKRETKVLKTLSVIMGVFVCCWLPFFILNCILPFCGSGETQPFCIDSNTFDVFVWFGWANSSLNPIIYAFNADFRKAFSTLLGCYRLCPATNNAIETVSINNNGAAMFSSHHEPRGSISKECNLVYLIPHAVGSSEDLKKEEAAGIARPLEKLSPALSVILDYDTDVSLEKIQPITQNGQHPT
# Procedure: The ability of the compounds to either stimulate or inhibit the D1 receptor mediated cAMP formation in CHO cells stably expressing the human recombinant D1 receptor was measured as follows. Cells were seeded in 96-well plates at a concentration of 11000 cells/well 3 days prior to the experiment.
# human D2 receptor = target: T2, human D2 receptor (Homo sapiens, UniProt P14416); experiment: D2 cAMP assay; type: cell-based; settings: read-out: intrinsic activity (efficacy)
# T2 construct: expressed in transfected cells; host or cells: CHO cells
# T2 sequence (P14416 whole entry): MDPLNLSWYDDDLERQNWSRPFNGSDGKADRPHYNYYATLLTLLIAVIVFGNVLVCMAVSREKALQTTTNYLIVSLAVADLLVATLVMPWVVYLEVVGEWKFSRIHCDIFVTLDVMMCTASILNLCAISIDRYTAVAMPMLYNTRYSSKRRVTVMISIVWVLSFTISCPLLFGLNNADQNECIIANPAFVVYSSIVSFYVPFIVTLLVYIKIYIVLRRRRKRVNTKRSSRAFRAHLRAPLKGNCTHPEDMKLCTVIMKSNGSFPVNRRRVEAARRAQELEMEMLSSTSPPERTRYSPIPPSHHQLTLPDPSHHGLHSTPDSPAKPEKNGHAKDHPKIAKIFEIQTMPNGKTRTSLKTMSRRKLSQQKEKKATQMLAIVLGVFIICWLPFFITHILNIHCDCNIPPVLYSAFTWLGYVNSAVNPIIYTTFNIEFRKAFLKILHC
# Procedure: The ability of the compounds to either stimulate or inhibit the D2 receptor mediated inhibition of cAMP formation in CHO cells transfected with the human D2 receptor was measured as follows. Cells were seeded in 96 well plates at a concentration of 8000 cells/well 3 days prior to the experiment. On the day of the experiment the cells were washed once in preheated G buffer (1 mM MgCl2, 0.9 mM CaCl2, 1 mM IBMX in PBS) and the assay was initiated by addition of 100 micro-1 of a mixture of 1 micro-M quinpirole, 10 microM forskolin and test compound in G buffer (antagonism) or 10 micro-M forskolin and test compound in G buffer (agonism).
# reserpinesed rats = experiment: Reversal of reserpine-induced hypomotility in rats; type: in vivo, rat
# Procedure: Rats weighing ca. 200 g were treated with reserpine (5 mg/kg subcutaneously as a solution in 20% aqueous solutol for which pH was adjusted to 4 with methanesulfonic acid). […] Group 1: treated with 20% ethanol in 0.7% aqueous sodium chloride subcutaneously.
# [3] = tested on: rats with unilateral 6-OHDA lesions; experiment: Rotation response in 6-OHDA rats after buccal delivery; type: in vivo, rat
# [4] = tested on: rats with unilateral 6-OHDA lesions; settings: rat, in vivo, sc
# MPTP treated marmosets = experiment: Anti-parkinsonian effects in MPTP-treated common marmosets; type: in vivo, common marmoset; design: disability score (120 min) / disability score (180 min) / disability score (240 min) / disability score (300 min) / disability score (360 min) / disability score (420 min) / disability score (60 min): scale not given here
# Procedure: The experiments were conducted using 6 MPTP treated marmosets (2.0 mg/kg daily for up to 5 consecutive days dissolved in sterile 0.9% saline solution). All the animals had previously been treated with L-DOPA (12.5 mg/kg p.o., plus carbidopa 12.5 mg/kg p.o.) administered daily for up to 30 days in order to induce dyskinesia. […] Domperidone was administered 60 min before any of the test compounds. Domperidone is an antidopaminergic drug that suppresses nausea and vomiting. Locomotor activity was assessed using test cages that are comprised of 8 photo-electric switches comprised of 8 infra-red beams which are strategically placed in the cage and interruption of a beam is recorded as one count. […] The assessment of motor disability was performed by a trained observer blinded to the treatment.
# The dose chosen for this challenge is at the top of the dose response curve for this drug.
# [5] = Table 4e direct comparison, AMPT 250 mg/kg SC, apomorphine 1 mg/kg SC, pramipexole 1 mg/kg SC, compound 10 0.030 mg/kg SC, controls: vehicle 509, AMPT/vehicle 2
smiles,measurement,setting,value
CCCN[C@H]1CCc2nc(N)sc2C1 [pramipexole],MED (minimum effective dose to induce rotation),[1],0.1 mg/kg
same,MEDNemonapride (MED to overcome Nemonapride block),[1],1.0 mg/kg
same,"mean AIM score (days 1, 5, 9, 10)",6-OHDA rats,58
same,activity count (0.5-1.5 h),MPTP/AMPT mouse model; [5],176
"CN1CCc2cccc3c2[C@H]1Cc1ccc(O)c(O)c1-3 [apomorphine, reference compound]",Emax,[2],86%
same,Emax,human D2 receptor,100%
same,MED (minimum effective dose to induce rotation),[1],0.010 mg/kg
same,MEDNemonapride (MED to overcome Nemonapride block),[1],0.030 mg/kg
same,reversal of motility deficits,"MPTP/AMPT mouse model; MPTP/AMPT mice, all dosed subcutaneously",restored locomotion in the mice in a dose-dependent manner
same,activity count (0.5-1.5 h),"MPTP/AMPT mouse model; Table 4b, AMPT 250 mg/kg SC at -1.5 h, 1.0 mg/kg SC, controls: vehicle 694, AMPT/vehicle 1",912
same,activity count (0.5-1.5 h),MPTP/AMPT mouse model; [5],904
same,reversal of reserpine-induced hypomotility,reserpinesed rats; administered subcutaneously,reversed the reserpine-induced hypomotility
same,activity count,"reserpinesed rats; reserpine 5 mg/kg SC 23-24 h before, apomorphine 1 mg/kg SC, compound 10 0.01 mg/kg SC, over 3 hours, controls: vehicle 486, reserpine/vehicle 17",440
same,mean number of rotations over 3 h,"[3]; apomorphine 0.1 mg/kg SC, compound 10 0.01 mg/kg buccally",1123
same,induction of rotation,"[3]; apomorphine subcutaneous, compound 10 buccal",induced rotations
same,dyskinesia score (AIMS),[4],about 65
"N[C@@H](Cc1ccc(O)c(O)c1)C(=O)O [L-DOPA, reference compound]",disability score (60 min),MPTP treated marmosets; 12.5 mg/kg PO,10.0
same,disability score (120 min),MPTP treated marmosets; 12.5 mg/kg PO,2.0
same,disability score (180 min),MPTP treated marmosets; 12.5 mg/kg PO,1.8
same,disability score (240 min),MPTP treated marmosets; 12.5 mg/kg PO,3.2
same,disability score (300 min),MPTP treated marmosets; 12.5 mg/kg PO,5.0
same,disability score (360 min),MPTP treated marmosets; 12.5 mg/kg PO,9.7
same,disability score (420 min),MPTP treated marmosets; 12.5 mg/kg PO,11.0
same,effect on locomotor activity and motor disability,"MPTP treated marmosets; L-DOPA 12.5 mg/kg p.o., compound 10 0.001 or 0.01 mg/kg SC",increased locomotor activity and reversed motor disability
same,dyskinesia score (AIMS),[4],about 65
CC(C)C[C@H]1C(=O)N2CCC[C@H]2[C@]2(O)O[C@](NC(=O)[C@@H]3C=C4c5cccc6[nH]c(Br)c(c56)C[C@H]4N(C)C3)(C(C)C)C(=O)N12 [bromocriptine],activity count (0.5-1.5 h),"MPTP/AMPT mouse model; Table 4d, AMPT 250 mg/kg SC, 1 mg/kg SC, controls: vehicle 336, AMPT/vehicle 16",25
same,activity count (0.5-1.5 h),"MPTP/AMPT mouse model; Table 4d, AMPT 250 mg/kg SC, 5 mg/kg SC",17
same,activity count (0.5-1.5 h),"MPTP/AMPT mouse model; Table 4d, AMPT 250 mg/kg SC, 10 mg/kg SC",36
CCCN(CCc1cccs1)[C@H]1CCc2c(O)cccc2C1 [rotigotine],D1 component in rotation model,[1]; SC,could not be observed
same,MED (minimum effective dose to induce rotation),[1],0.030 mg/kg
same,MEDNemonapride (MED to overcome Nemonapride block),[1],0.30 mg/kg
